# Measurements as given in patent publication US12059428B2, “Methods of treating tumor metastasis” (TARIS Biomedical LLC, priority 2017, dated 2024).
# “Also recorded” adds a separate entry of the source.
# Experiments:
# [1] = test system: subcutaneous NBTII tumors; test: Bladder and flank NBTII tumor model, subcutaneous tumor volume by caliper (Example 1); format: in vivo, rat
# Excerpt: Standardized bladder perfusion system was modified to introduce bladder and subcutaneous tumors. The bladders were first surgically cannulated by placing a catheter into the bladder, fixed in place using a suture, the free end exteriorized between the scapulae.
# The animals were allowed to heal. Bladder tumors were established by injecting tumor cell suspension directly into bladder wall. Subcutaneous tumor was established by injecting tumor cell suspension under skin abdominal flank.
# The bladder and flank tumor model used in this study utilized immunocompetent Wistar rats, 7 to 8 weeks in age and weighing between 150 to 200 g. The bladders were first surgically cannulated by placing a P50 catheter into the bladder dome which was fixed in place using a purse string suture and the free end exteriorized between the scapulae. […] Per study protocol, different groups of bladder cannulated rats were next inoculated with NBTII tumor cells (Nara Bladder Tumor No. 2; ATCC® CRL1655™). This is a rat syngeneic bladder tumor cell line originally derived from tumors induced with N-butyl-N-(4-hydroxybutyl) nitrosamine. In certain treatment groups, the tumor cells were injected directly into the bladder wall as a 50 uL cell suspension of approximately 2×10^6 cells. […]
# Group 4 (SCT with BT, N=10) animal bladders were cannulated on study Day 0 and on study Day 4 both the bladder and abdominal flank were inoculated with NBTII tumor cells. Gemcitabine HCl in PBS (180 ug/mL) was perfused via the cannula into the bladder beginning on study Day 6 at a constant rate of 0.3 mL per hour for 5 days and again beginning on Day 20 for an additional 5 day treatment period.
# Subcutaneous tumor volumes were serially measured post inoculation every two or three days using a caliper method.
# [2] = test system: T24-TurboFP635 human derived MIBC cells; test: Bladder tumor bioluminescence in athymic rats with T24-TurboFP635 cells injected into the bladder; format: in vivo, rat; conditions: for reduction in bladder tumor bioluminescence vs control: athymic rats, 5-day perfusion, day 5
# Experimental: (§1) The direct effects of low dose gemcitabine were studied in athymic rats with human derived MIBC cells, T24-TurboFP635, injected into the bladder. After 3 days tumor growth, gemcitabine or vehicle was perfused into the bladder over 5 days, yielding nominal urine concentrations of 0, 20, 40, or 80 ug/ml gemcitabine, N=6 per group. Tumor bioluminescence was measured on day 5. A companion study in immunocompetent rats inoculated with syngeneic NBTII bladder tumors, provided tumors for immunocyte analysis.
# [3] = test system: tumor T regulatory cells to T effector cells; test: Flow cytometric immunocyte analysis of residual NBTII bladder tumors; format: in vivo, rat; conditions: residual NBTII tumors from immunocompetent rats
# Experimental: as §1
# NBTII flank tumors = test: Gemcitabine immunogenicity study, NBTII bladder and flank tumors (Example 2); format: in vivo, rat
# Excerpt: Gemcitabine immunogenicity was studied in immunocompetent rats with NBTII cells injected into the bladder and subcutaneous flank tissue; flank tumors were implanted either simultaneously with bladder tumors or 14 days after bladder tumor injection. Control groups received only flank tumors, N=15, or bladder and flank tumors with vehicle perfusion, N=10. […]
# [4] = test system: subcutaneous NBTII tumors; test: Varying gemcitabine bladder exposure, simultaneously implanted bladder and subcutaneous NBTII tumors (Example 3); format: in vivo, rat; conditions: perfusion 45 and 90 μg/ml, nominal urine 10 and 20 μg/ml, FIG. 6
# Excerpt: Extending the investigation described in EXAMPLE 1, additional studies of NBTII bladder and subcutaneous tumors evaluated the effect of varying gemcitabine bladder exposures with and without simultaneous bladder tumor implantation.
# In one set of experiments, gemcitabine perfusion concentrations were varied to evaluate the effect of differing bladder tumor exposures on subcutaneous tumor growth rates. Bladder cannulated rats (n=10 per treatment group) with simultaneously implanted bladder and subcutaneous NBTII tumors were studied over two treatment cycles, each separated by a 7-day drug free period, as used in the EXAMPLE 1 study.
# Gemcitabine perfusion concentrations of 45 μg/ml and 90 μg/ml were tested, producing nominal urine concentrations of 10 μg/ml and 20 μg/ml respectively, representing […] reductions vs the original study gemcitabine urine concentrations. Subcutaneous tumor growth was measured during the study as previously.
# [5] = test system: subcutaneous NBTII tumors; test: Bladder cannulated rats with only subcutaneous NBTII tumors, no bladder tumor (Example 4); format: in vivo, rat; conditions: two perfusion cycles, FIG. 7
# Experimental: To confirm the observed effects on subcutaneous tumor growth is the result of the local action of intravesical gemcitabine on bladder tumors, an additional series of experiments were completed in which bladder cannulated rats were implanted with only subcutaneous NBTII tumors. The animals were then treated with two perfusion cycles of intravesical gemcitabine as in the previous experiments. […] These findings both confirm the presence of a bladder tumor is required and the observed reductions in subcutaneous tumors are mediated immunologically.
# TGF-β = test: Circulating TGF-β in rats inoculated with NBTII bladder tumors; format: in vivo, rat; conditions: low concentration intravesical perfusion, FIG. 8
# Excerpt: TGF-β drives Treg cell expression which in turn suppresses both local and systemic CD4 and CD8 T cell response against the bladder tumor.
# IL-10 = IL-10 levels in rats inoculated with NBTII bladder tumors; format: in vivo, rat; conditions: spleens of treated animals, FIG. 9
# Excerpt: (§2) IL-10 increases associated with acute treatment are known to facilitate T cell mediated antitumor effects.
# TNF-α = TNF-α levels in rats inoculated with NBTII bladder tumors; format: in vivo, rat; conditions: FIG. 10
# Excerpt: as §2
# [6] = test system: activated CD4 and CD8 cells in the spleen; test: Activated CD4 and CD8 cells in the spleen by flow cytometry, NBT-II tumor rats; format: in vivo, rat; conditions: vs untreated tumor rats, FIG. 11
# Experimental: Rats were inoculated with NBT-II tumors and the number of activated CD4 and CD8 cells in the spleen was assessed by flow cytometry either in rats treated with intravesicular gemcitabine or untreated rats. […] Intravesicular gemcitabine increased the percentage of activated CD4 and CD8 cells, thus indicating activation of the immune system against the tumor.
# [7] = test system: CD4+FOXP3+ and CD8+FOXP3+ regulatory T cells; test: Splenic regulatory T cells by flow cytometry, NBT-II tumor rats; format: in vivo, rat; conditions: vs untreated tumor rats, FIG. 12
# Excerpt: The percentage splenic of regulatory T cells was assed using flow cytometry. […] Intravesicular gemcitabine increased the percentage of activated Cn both CD4+FOXP3+ and CD8+FOXP3+ regulatory T cells, thus indicating activation of the systemic immune system against the tumor.
# [8] = Gemcitabine urine concentration during intravesicular perfusion; format: in vivo, rat; conditions: intravesicular perfusion of 180 ug/ml solution
# NBTII tumor cells = test: Bladder tumor growth after inoculation with NBTII tumor cells; format: in vivo, rat; conditions: average urine concentration 40 ug/mL
# [9] = prior studies in animals and humans; cited from earlier work
# [10] = rats with concomitant bladder tumors
smiles,measurement,setting,value
"Nc1ccn([C@@H]2O[C@H](CO)[C@@H](O)C2(F)F)c(=O)n1 [gemcitabine, 2′,2′-difluorodeoxycytidine]",subcutaneous tumor volume during second 5-day intravesical perfusion,"[1]; Group 3 (SCT after BT): subcutaneous tumor implanted Day 17 after first perfusion, 180 ug/mL",all subcutaneous tumors were undetectable by palpation; also recorded: immediately declined in tumor volume until the tumors were no longer detectable
same,eradication of subcutaneous tumors upon retreatment,"[1]; Group 3 and 4 combined, two 5-day cycles of 180 ug/mL",complete eradication of all but one subcutaneous tumor
same,subcutaneous tumor volume after second 5-day intravesical treatment,"[1]; Group 4 (SCT with BT), 180 ug/mL, second cycle from Day 20",all but one tumor was undetectable by palpation
same,subcutaneous tumor growth over the 7-day drug free period,"[1]; Group 4 (SCT with BT), after first 5-day perfusion of 180 ug/mL",failed to return to their initial growth rate
same,subcutaneous tumor growth by the end of the first intravesical perfusion period,"[1]; Group 4 (SCT with BT): bladder and subcutaneous tumors Day 4, 180 ug/mL perfused 0.3 mL per hour for 5 days",dramatically slowed or fully arrested; also recorded: continued to grow for several days prior to arresting
same,reduction in bladder tumor bioluminescence vs control,[2]; nominal urine concentration 20 ug/ml,47.6%
same,reduction in bladder tumor bioluminescence vs control,[2]; nominal urine concentration 40 ug/ml,70.5%
same,reduction in bladder tumor bioluminescence vs control,[2]; nominal urine concentration 80 ug/ml,91.2%
same,bladder tumor growth after inoculation with T24 tumor cells,[2]; average urine concentration 40 ug/mL,significantly reduce bladder tumor growth
same,decrease in the proportion of tumor T regulatory cells to T effector cells,[3],85.2%
same,flank tumor growth arrest during the 7-day drug free period,NBTII flank tumors; 60 ug/ml group,this effect was maintained
same,"flank tumor response, implantation delayed to 3 days before the second perfusion",NBTII flank tumors; flank tumor implanted 14 days after bladder tumor,"no tumor growth, but immediate tumor ablation"
same,flank tumor response to the second perfusion,NBTII flank tumors; flank tumors implanted simultaneously with bladder tumors,rapid flank tumor ablation in all but one animal
same,flank tumor growth during the first perfusion cycle,NBTII flank tumors; [10],fully arrested
same,flank tumor size relative to controls during the first perfusion cycle,NBTII flank tumors; [10],50 % of controls
same,subcutaneous tumor volume at reduced urine concentrations,[4],dose related reduction in subcutaneous tumor volume
same,subcutaneous tumor volume during the second treatment cycle,[4],significantly decreased to near ablation
same,subcutaneous tumor growth in rats without bladder tumor,[5],continued to grow throughout both treatment cycles
same,circulating TGF-β plasma concentration,TGF-β,suppressed TGF-β production
same,IL-10 levels,IL-10,increased IL-10 levels
same,TNF-α level,TNF-α,moderately increased
same,percentage of activated CD4 cells in the spleen,[6],increased
same,percentage of activated CD8 cells in the spleen,[6],increased
same,percentage of splenic CD4+FOXP3+ regulatory T cells,[7],increased
same,percentage of splenic CD8+FOXP3+ regulatory T cells,[7],increased
same,average gemcitabine urine concentration,[8],40 µg/mL
same,bladder tumor growth after inoculation with NBTII tumor cells,NBTII tumor cells,significantly reduce bladder tumor growth
same,systemic drug concentrations after low concentrations of intravesical gemcitabine,[9],do not produce therapeutic drug concentrations systemically
